Holding throughout (format): cell-based
The test system of assay [1] is Fusarium solani. As to the kind of experiment: MIC by micro-liquid dilution method (Alamar Blue assay), Fusarium solani. Further details: unit not given here. The settings on record: 10 clinical strains; 35° C., 72 hours; MIC = minimum concentration with IC not less than 80%. On the procedure: (§1) The MICs of each type of antifungal agent against Fusarium oxysporum and Fusarium solani were determined. That is, each fungus was cultured at 35° C. for 72 hours using, as a medium, “RPMI 1640/MOPS liquid medium supplemented with 10% Alamar Blue (registered trademark) (pH 7.0)” (see Shinobu Ishigaki et al., The Journal of the Japanese Association for Infectious Diseases, vol. 74(3) (2000) pp. 221-230) according to the micro-liquid dilution method (Alamar Blue assay), which is in accordance with the CLSI standardization and the Japanese Society for Medical Mycology method. Thereafter, O.D. was measured for investigating color change of the oxidation-reduction indicator Alamar Blue, to determine the minimum inhibitory concentration (MIC). That is, the growth inhibition rate (IC) was determined based on the O.D. value, and the minimum concentration of the agent at which an IC of not less than 80% was achieved was determined as MIC. Two strains of Fusarium oxysporum (clinically separated strains; Teikyo University Institute of Medical Mycology), and 10 strains of Fusarium solani (clinically separated strains; Institute of Dermatology (Thailand) and Teikyo University Institute of Medical Mycology) were used.
A general note: The colour change of resazurin is a common sign of viable cells or microbes.

The test system of assay [2] is Fusarium oxysporum. In words: MIC by micro-liquid dilution method (Alamar Blue assay), Fusarium oxysporum. Further details: unit not given here. The settings on record: 2 clinical strains; 35° C., 72 hours; MIC = minimum concentration with IC not less than 80%. Here is the method: as §1
Assay [3] relates to Trichomonas vaginalis. In words: Growth inhibition of Trichomonas vaginalis in Trichomonas Medium F (neutral red colour, microscopy). The following applies: for MIC: clinically isolated Trichomonas vaginalis, read-out: minimum inhibitory concentration (MIC); for MIC / Color / Result of observation under the microscope: 72 hours; for Color: 37° C.; for Result of observation under the microscope: inverted microscope. On the procedure: Among the compounds represented by General Formula (1), luliconazole was selected for investigation of the effect on Trichomonas vaginalis. That is, 5×10^6 cells of clinically isolated Trichomonas vaginalis were seeded in Trichomonas Medium F, manufactured by Fuji Pharma Industrial Co., Ltd., which contains neutral red as a marker (6.5 mL, contained in a tube). Preculture was performed for 72 hours (preculture). After confirming that the Trichomonas has grown to actively produce acid and to thereby cause changing of the color of neutral red to yellow, 100 μL of the obtained preculture liquid was added to Trichomonas Medium F to be used for main culture. To resulting mixture, 0.5 mL of each test liquid was further added. The number of Trichomonas cells in the preculture liquid at this time was 1.5×10^5 cells/mL. Three types of test liquids, that is, solutions of luliconazole in 10% methanol/saline solution at luliconazole concentrations of 200 μM (final concentration, 35.2 μM), 100 μM (final concentration, 17.6 μM) and 50 μM (final concentration, 8.8 μM), were provided. A control was prepared by adding 0.5 mL of a vehicle as a test liquid. As the vehicle, 10% methanol/saline solution (final concentration, 0 μM) was used. After the addition, each resulting mixture was stirred well, and culture was carried out at 37° C. for 72 hours. Thereafter, the color was judged, and the condition of Trichomonas cells was observed under an inverted microscope.
The same study as in Example 1 was carried out except that lanoconazole was used instead of luliconazole.

For assay [4], the system named is Chlamydia trachomatis (D/UW3/Cx). In words: Anti-intracellular parasite action: Chlamydia trachomatis cultured in HeLa 229 cells, fluorescent staining of inclusion bodies. Here is the method:
FIG. 1 is a diagram (photographs) illustrating the results of observation of chlamydial inclusion bodies after luliconazole treatment, which observation was carried out by fluorescent staining using a Chlamydia FA reagent “Seiken”.
Using Chlamydia trachomatis (D/UW3/Cx), the anti-intracellular parasite action was examined. That is, Chlamydia trachomatis was cultured using HeLa 229 cells as a host in the presence of a 2-fold dilution series of 8 to 64 μg/mL luliconazole. The culture was carried out using, as a medium, MEM supplemented with 1 μg/mL cyclohexamide and 8% heat-inactivated FBS, at 37° C. under 5% carbon dioxide for 72 hours. Thereafter, inclusion bodies were fluorescently stained in apple green using a Chlamydia FA reagent “Seiken” (manufactured by Denka Seiken Co., Ltd.), and observed under a fluorescence microscope.

The mark [5] stands for this setting: final concentration 8.8 μM, neutral red marker.
[6] abbreviates: final concentration 17.6 μM, neutral red marker.
Where [7] appears, read: final concentration 35.2 μM, neutral red marker (yellow = acid production by growing Trichomonas).

Values after ≈ are worked out from the molar mass of the structure shown. Where a name gives a salt, the structure may show the parent alone. Some results are limits rather than exact numbers.

As to `N#C/C(=C1/SCC(c2ccccc2Cl)S1)n1ccnc1` (stereo not drawn) [lanoconazole, 4-(2-chlorophenyl)-1,3-dithiolan-2-ylidene-1-imidazolylacetonitrile], the “MIC, F. solani (10), lower line of each agent (range)” value (“MIC, F. solani (10), lower line” below) in assay [1] is 0.063-0.25. Also, in assay [2], the “MIC, F. oxysporum (2), lower line of each agent (range)” value (“MIC, F. oxysporum (2), lower line” below) is 0.063-0.13. Also, the MIC in assay [3] is around 17.6 µM (≈ 5.63 µg/mL). For the same molecule, the results for the Color entry in assay [3] (setting [5]), in assay [3] (setting [6]) and in assay [3] (setting [7]) were “Yellow”, “Red” and “Red”, respectively. Further, the “Result of observation under the microscope” value in assay [3] (final concentration 35.2 μM) is “No Trichomonas cell was found”. Further, the “growth of Trichomonas” value in assay [3] (same study as Example 1, no concentration stated) was “inhibit the growth of Trichomonas”.
As for `C=C1CCN([C@H](C)[C@](O)(Cn2cncn2)c2ccc(F)cc2F)CC1` [EFCZ, Efinaconazole], the “MIC, F. oxysporum (2), lower line” value in assay [2] was 0.25-1.
As to `N#C/C(=C1/SC[C@@H](c2ccc(Cl)cc2Cl)S1)n1ccnc1` [luliconazole, (R)-(−)-(E)-[4-(2,4-dichlorophenyl)-1,3-dithiolan-2-ylidene]-1-imidazolylacetonitrile], in assay [1], the “MIC, F. solani (10), lower line” value is 0.016-0.063. In addition, the “MIC, F. oxysporum (2), lower line” value in assay [2] is 0.016-0.031. In assay [3] (8.8 μM), the “growth of Trichomonas” value is reported as “inhibited the growth of Trichomonas”. Also, the MIC in assay [3] was around 8.8 µM (≈ 3.12 µg/mL); in assay [4] (Chlamydia trachomatis, HeLa 229 host cells, 72 hours, 2-fold dilution series 8 to 64 μg/mL, read-out: MIC against Chlamydia trachomatis) it was 32 µg/mL (≈ 90.3 µM). The Color entry is “Yellow” in assay [3] (setting [5]), “Red” in assay [3] (setting [6]) and “Red” in assay [3] (setting [7]). Also, the “Result of observation under the microscope” value in assay [3] (final concentration 17.6 μM) and in assay [3] (final concentration 35.2 μM) was “No Trichomonas cell was found” each time. The “observation of chlamydial inclusion bodies” value in assay [4] (8 μg/mL, FIG. 1 panel (A)) is given as “chlamydial inclusion bodies were found”; in assay [4] (16 μg/mL, FIG. 1 panel (B)), “chlamydial inclusion bodies were found”; in assay [4] (32 μg/mL, FIG. 1 panel (C)), “no inclusion body was found”.
For the molecule `C[C@@H](c1ncncc1F)[C@](O)(Cn1cncn1)c1ccc(F)cc1F` [VCZ, Voriconazole], the “MIC, F. oxysporum (2), lower line” value in assay [2] is reported as above 4.
For the molecule `Clc1ccccc1C(c1ccccc1)(c1ccccc1)n1ccnc1` [CTZ, Clotrimazole], the “MIC, F. solani (10), lower line” value in assay [1] is listed as above 4. Also, the “MIC, F. oxysporum (2), lower line” value in assay [2] is listed as above 4.
As for `Clc1ccc(COC(Cn2ccnc2)c2ccc(Cl)cc2Cl)c(Cl)c1` (stereo not drawn) [MCZ, Miconazole nitrate], the “MIC, F. oxysporum (2), lower line” value in assay [2] is listed as above 4.
Consider `CCC(C)(C)c1ccc(CC(C)CN2C[C@@H](C)O[C@@H](C)C2)cc1` (stereo partly drawn) [AMO, Amorolfine hydrochloride], for which, in assay [1], the “MIC, F. solani (10), lower line” value is recorded as above 4. Also, in assay [2], the “MIC, F. oxysporum (2), lower line” value is above 4.
With `c1ccc(-c2ccc(C(c3ccccc3)n3ccnc3)cc2)cc1` (stereo not drawn) [BFZ, Bifonazole], the “MIC, F. solani (10), lower line” value in assay [1] was above 4. Moreover, the “MIC, F. oxysporum (2), lower line” value in assay [2] is above 4.
On to `CCC(C)n1ncn(-c2ccc(N3CCN(c4ccc(OCC5COC(Cn6cncn6)(c6ccc(Cl)cc6Cl)O5)cc4)CC3)cc2)c1=O` (stereo not drawn) [ITZ, Itraconazole], for which the “MIC, F. solani (10), lower line” value in assay [1] is recorded as above 4. Further, the “MIC, F. oxysporum (2), lower line” value in assay [2] is listed as above 4.
Turning to `OC(Cn1cncn1)(Cn1cncn1)c1ccc(F)cc1F` [FCZ, Fluconazole], the “MIC, F. solani (10), lower line” value in assay [1] is on record as above 4. Besides, in assay [2], the “MIC, F. oxysporum (2), lower line” value is recorded as above 4.
As for `C[C@@H]1[C@H](O)[C@@H](C)/C=C/C=C/C=C/C=C/C=C/C=C/C=C/[C@H](O[C@@H]2O[C@H](C)[C@@H](O)[C@H](N)[C@@H]2O)C[C@@H]2O[C@](O)(C[C@@H](O)C[C@@H](O)[C@H](O)CC[C@@H](O)C[C@@H](O)CC(=O)O[C@H]1C)C[C@H](O)[C@H]2C(=O)O` [AMB, Amphotericin B], the “MIC, F. solani (10), lower line” value in assay [1] is given as 2-4.
Turning to `CC(=O)N1CCN(c2ccc(OCC3COC(Cn4ccnc4)(c4ccc(Cl)cc4Cl)O3)cc2)CC1` (stereo not drawn) [KCZ, Ketoconazole], the “MIC, F. oxysporum (2), lower line” value in assay [2] is on record as above 4.

Values taken from patent publication US20160279101A1, “PHARMACEUTICAL COMPOSITION FOR TREATMENT OF PNEUMONIA ASSOCIATED WITH FUSARIUM FUNGUS” (priority 2013, published 2016).
